{"source": "patent US6399661B1", "about": "“Oral creatine supplement and method for making same” (priority 2000, dated 2002)", "key": {"human body": {"tested_on": "human body", "conditions": "5 grams of creatine, 4-6 times a day, for two or more days, oral; cited from earlier work"}, "[1]": {"experiment": "conversion of creatine to creatinine in solutions of different pH", "format": "physicochemical", "source_text": "FIG. 1 is a graph showing rate of creatinine formation from creatine as a function of pH;\nFIG. 2 is a graph showing rate of creatine loss as a function of time upon dissolution in different pH buffers; and\nFIG. 3 is a chart showing time in minutes for conversion of 1 g creatine to creatinine in 2 liter at given pH.\nThe rate of creatinine formation from creatine as a function of pH is shown in FIG. 1 in accordance with research conducted by the inventor. In FIG. 2, the rate of creatine loss as a function of time upon dissolution in different pH buffers is shown."}, "[2]": {"conditions": "acidic solutions having a pH range of from 3-6; cited from earlier work"}}, "data": [{"smiles": "CN(CC(=O)O)C(=N)N", "note": "[creatine]", "values": [{"measurement": "total creatine concentration", "setting": "human body", "result": "significant increase"}, {"measurement": "creatine remaining following dissolution in a pH buffer", "setting": "[1]; different pH buffers, as a function of time (FIG. 2)", "result": "the higher the pH, the higher the creatine remaining"}, {"measurement": "rate of conversion of one gram of creatine to creatinine", "setting": "[1]; various pH solutions, 1 g creatine in 2 liter (FIG. 3)", "result": "substantially slowed by increasing the pH of the solution"}, {"measurement": "rate of conversion of creatine to creatinine", "setting": "[2]", "result": "almost instantaneous"}]}]}
